In patent US6329363A, “Cephalosporin antibiotics” (Eli Lilly and Company, priority 1998, dated 2001):
Converted amounts (≈) assume the structure as drawn.

Legend:
[1] = tested on: pasteurella multocida ATCC 12945; assay: MIC against Gram-negative organisms: pasteurella multocida ATCC 12945; assay type: cell-based; conditions: Incubated at 37° C. overnight; unit assumed
Protocol: (§1) The formula I compounds are also active against certain Gram-negative species.
(§2) ^a Incubated at 37° C. overnight

S.aureus F1C = assay: MIC, in vitro activity vs. S.aureus F1C; assay type: cell-based, Staphylococcus aureus; design: unit not given beside the values; conditions: Incubated at 37° C. overnight
Protocol: (§3) Table 2 summarizes the minimal inhibitory concentrations (MIC's) at which illustrative formula I compounds and cephalothin inhibit certain microorganisms associated with mastitis, such as Staphylococcus aureus 10092 (Newbould strain).
as §2

Salmonella typhimurium = assay: MIC against Gram-negative organisms: Salmonella typhimurium; assay type: cell-based; conditions: Incubated at 37° C. overnight; unit assumed
Protocol: as §1, §2

[2] = tested on: Pasteurella haemolytica 128K (bovine); assay: MIC against Gram-negative organisms: Pasteurella haemolytica 128K (bovine); assay type: cell-based; conditions: Incubated at 37° C. overnight; unit assumed
Protocol: as §1, §2

[3] = tested on: pasteurella multocida 10,102 (bovine); assay: MIC against Gram-negative organisms: pasteurella multocida 10,102 (bovine); assay type: cell-based; conditions: Incubated at 37° C. overnight; unit assumed
Protocol: as §1, §2

[4] = tested on: Streptococcus uberis 150 L; assay: MIC, in vitro activity vs. Streptococcus uberis 150 L; assay type: cell-based; design: unit not given beside the values; conditions: Incubated at 37° C. overnight
Protocol: as §3, §2

Escherichia coli = assay: MIC against Gram-negative organisms: Escherichia coli; assay type: cell-based; conditions: Incubated at 37° C. overnight; unit assumed
Protocol: as §1, §2

[5] = tested on: Pasteurella haemolytica 129R (bovine); assay: MIC against Gram-negative organisms: Pasteurella haemolytica 129R (bovine); assay type: cell-based; conditions: Incubated at 37° C. overnight; unit assumed
Protocol: as §1, §2

[6] = tested on: pasteurella multocida 108E (bovine); assay: MIC against Gram-negative organisms: pasteurella multocida 108E (bovine); assay type: cell-based; conditions: Incubated at 37° C. overnight; unit assumed
Protocol: as §1, §2

[7] = tested on: Streptococcus uberis 166 L; assay: MIC, in vitro activity vs. Streptococcus uberis 166 L; assay type: cell-based; design: unit not given beside the values; conditions: Incubated at 37° C. overnight
Protocol: as §3, §2

[8] = tested on: pasteurella multocida 1051 (swine); assay: MIC against Gram-negative organisms: pasteurella multocida 1051 (swine); assay type: cell-based; conditions: Incubated at 37° C. overnight; unit assumed
Protocol: as §1, §2

Streptococcus agalactiae = assay: MIC, in vitro activity vs. Streptococcus agalactiae; assay type: cell-based; design: unit not given here; conditions: Incubated at 37° C. overnight
Protocol: as §3, §2

[9] = tested on: Pasteurella haemolytica 114F (bovine); assay: MIC against Gram-negative organisms: Pasteurella haemolytica 114F (bovine); assay type: cell-based; conditions: Incubated at 37° C. overnight; unit assumed
Protocol: as §1, §2

S.aureus 174 C = assay: MIC, in vitro activity vs. S.aureus 174 C; assay type: cell-based, Staphylococcus aureus; design: unit not given beside the values; conditions: Incubated at 37° C. overnight
Protocol: as §3, §2

S.aureus ATCC 29213 = assay: MIC, in vitro activity vs. S.aureus ATCC 29213; assay type: cell-based, Staphylococcus aureus; design: unit not given beside the values; conditions: Incubated at 37° C. overnight
Protocol: as §3, §2

[10] = tested on: Staphylococcus aureus 10092 (Newbould); assay: Efficacy in induced Staphylococcus aureus mastitis model in lactating goats; assay type: in vivo; conditions: 8 halves per compound, 2 consecutive milkings 12 hours apart, approximately 25 mg/5 mL dose in peanut oil, from 36 hours post-challenge
Description: Sixteen lactating goats were selected based on the absence of Staphylococcus aureus in pre-challenge milk cultures. Maintenance ration was provided to the animals throughout the study. The goats were milked twice each day using a portable goat milker.
Milk samples were collected during the morning milking. One day prior to challenge, milk culture samples were collected from each half of the test animals to determine if there was a pre-existing infection. Additionally, a sample was collected from each half for Somatic Cell Count (SCC) determination. A milk culture sample and a sample for SCC were collected from each half 24 hours post-challenge and on Days +4 to +6, +8, +11, +13, and +15.
Udder scoring was performed during each milking wing table:
General health observations and body temperature were recorded once a day following milking during the challenge and treatment periods.
Milk samples were submitted for analysis for SCC using an electronic somatic cell counting system.
Milk culture samples were assayed for bacterial culture by plating 1.0 mL and 0.1 mL of the milk sample directly onto duplicate blood agar plates. Additionally, dilutions 10^-1 of the milk sample were plated. Plates were incubated overnight at 37° C.
Staphylococcus aureus 10092 (Newbould) was used as the challenge strain. The challenge culture was grown in Tryptic Soy Broth (TSB) from a lyovial stock overnight (16 hours) at 37° C. TSB (100 mL) was inoculated with 1 mL of the overnight culture and incubated at 37° C. with shaking for 4 hours. The culture was centrifuged at 9000 rpm for 10 minutes at 10° C.; supernatant was removed and the pellet was resuspended in phosphate buffered saline (PBS). Optimum O.D. reading at 650 nm was approximately 0.035. A 10-fold dilution series was prepared with saline to determine the CFU/mL, plating 10^-5, 10^-6, and 10^-7 dilutions onto duplicate blood agar plates. The 10^-7 dilution (approximately 10 CFU/mL) was used for the challenge material, yielding a challenge of 50 CFU/half with a 5-mL infusion.
Sixteen goats were used for the trial. During a one day pre-challenge period, milk samples were collected and temperatures were taken during the morning milking. Milk/udder evaluations were documented during the morning and afternoon milkings.
Staphylococcus aureus 10092 was infused into both halves in each of the goats. The goats were challenged following the morning milking and milked in the afternoon on the day of challenge. The challenge inoculum volume was 5 mL/half containing approximately 50 CFU S. aureus.
For the 24 hr post-challenge period milk samples were collected during the morning milking, and milk/udder evaluations made during the morning and afternoon milking.
Treatment was started at 36 hours post-challenge. Milk samples were collected for culture and SCC 24 hours post-challenge, prior to the morning milking, and the treatment period started following the afternoon milking.
Eight halves (4 goats) each were treated for 2 consecutive milkings 12 hours apart, following milking. Each designated compound was formulated in peanut oil with […] of compound per 5 g of formulation to give approximately 25 mg/5 mL dose.
Following treatment, the goats were milked and observed for 15 days. Milk samples were collected on Days +4 to +6, +8, +11, +13, and +15 to determine if the infection had cleared.
Establishment of mastitis was determined by bacterial culturing, severity of udder scoring, somatic cell count results, and body temperature.
On Days +2 to +6, milk samples were collected for a calorimetric assay to determine whether the antibiotic was still present in the milk.

Mastitis in Cows = assay: Efficacy in mastitis in lactating cows; assay type: in vivo; conditions: three trials, 450 mmoles/quarter/dose for two doses
Protocol: Compound 1 was administered to lactating cows in three trials using methods analogous to those used in the goat model described in Example 13. A total of 43 quarters were treated with Compound 1, and 36 quarters were treated with cephapirin (Cefa-Lak). Both compounds were administered at 450 mmoles/quarter/dose for two doses. Compound 1 effectively treated 27 out of 43 quarters for an overall cure rate of 63%, whereas cephapirin effectively treated 18 out of 36 quarters for an overall cure rate of only 50%.

[11] = tested on: Strepcococcus dysgalactiae; assay: MIC, in vitro activity vs. Streptococcus dysgalactiae; assay type: cell-based; design: unit not given here; conditions: Incubated at 37° C. overnight
Protocol: as §3, §2

[12] = tested on: Staphylococcus aureus 10092 (Newbould strain); assay: MIC, in vitro activity vs. S.aureus 10092; assay type: cell-based; design: unit not given beside the values; conditions: Incubated at 37° C. overnight
Protocol: as §3, §2

Compound | MIC, pasteurella multocida ATCC 12945 [1] | MIC vs. S.aureus F1C (S.aureus F1C) | MIC, Salmonella typhimurium (Salmonella typhimurium) | MIC, Pasteurella haemolytica 128K (bovine) [2] | MIC, pasteurella multocida 10,102 (bovine) [3] | MIC vs. Streptococcus uberis 150 L [4] | MIC, Escherichia coli (Escherichia coli) | MIC, Pasteurella haemolytica 129R (bovine) [5] | MIC, pasteurella multocida 108E (bovine) [6] | MIC vs. Streptococcus uberis 166 L [7] | MIC, pasteurella multocida 1051 (swine) [8] | MIC vs. Streptococcus agalactiae (Streptococcus agalactiae) | MIC, Pasteurella haemolytica 114F (bovine) [9] | MIC vs. S.aureus 174 C (S.aureus 174 C) | MIC vs. S.aureus ATCC 29213 (S.aureus ATCC 29213) | % Bacteriologic Cures [10] | overall cure rate (Mastitis in Cows) | quarters effectively treated (Mastitis in Cows) | MIC vs. Strepcococcus dysgalactiae [11] | MIC vs. S.aureus 10092 [12]
CC(=O)OCC1=C(C(=O)O)N2C(=O)[C@@H](NC(=O)Cc3cccs3)[C@H]2SC1 [Cephalothin, reference compound] | 0.25 µg/mL (≈ 0.631 µM) | 0.25 | 4 µg/mL (≈ 10.1 µM) | 0.5 µg/mL (≈ 1.26 µM) | 0.5 µg/mL (≈ 1.26 µM) | 0.125 | 8 µg/mL (≈ 20.2 µM) | 1 µg/mL (≈ 2.52 µM) | 0.5 µg/mL (≈ 1.26 µM) | 0.0625 | 0.25 µg/mL (≈ 0.631 µM) | 0.125 | 1 µg/mL (≈ 2.52 µM) | 0.25 | 0.25 | – | – | – | – | –
Cc1nnc(SCC2=C(C(=O)O)N3C(=O)[C@@H](NC(=O)COc4c(F)c(F)c(F)c(F)c4F)[C@H]3SC2)s1 [Compound 1] | 0.25 µg/mL (≈ 0.44 µM) | 0.5 | ≤ 128 µg/mL | 4 µg/mL (≈ 7.04 µM) | 0.25 µg/mL (≈ 0.44 µM) | 0.25 | ≤ 128 µg/mL | 4 µg/mL (≈ 7.04 µM) | 0.25 µg/mL (≈ 0.44 µM) | 0.25 | 0.25 µg/mL (≈ 0.44 µM) | 0.25 | 8 µg/mL (≈ 14.1 µM) | 0.25 | 0.25 | 71% | 63% | 27 out of 43 | 0.125 | 0.25
Cc1nnc(SCC2=C(C(=O)O)N3C(=O)[C@@H](NC(=O)CSc4ccc(C(F)(F)F)cc4)[C@H]3SC2)s1 [Compound 2] | – | 0.25 | – | – | – | 0.125 | – | – | – | 0.125 | – | 0.125 | – | 0.125 | 0.25 | 83% | – | – | 0.0625 | 0.125
Cc1nnc(SCC2=C(C(=O)O)N3C(=O)[C@@H](NC(=O)CSc4c(F)c(F)c(F)c(F)c4F)[C@H]3SC2)s1 [Compound 3] | – | 0.125 | – | – | – | – | – | – | – | 0.0156 | – | 0.0156 | – | 0.0625 | 0.125 | 50% | – | – | 0.0156 | 0.625
Cc1nnc(SCC2=C(C(=O)O)N3C(=O)[C@@H](NC(=O)CSc4ccc(S(=O)(=O)C(F)(F)F)cc4)[C@H]3SC2)s1 [Compound 4] | – | 0.125 | – | – | – | – | – | – | – | – | – | 0.0156 | – | 0.0312 | 0.0625 | 71% | – | – | – | 0.0312
Cc1nnc(SCC2=C(C(=O)O)N3C(=O)[C@@H](NC(=O)CSc4c(F)c(F)c(C(F)(F)F)c(F)c4F)[C@H]3SC2)s1 [Compound 5] | – | 0.125 | – | – | – | 0.0156 | – | – | – | – | – | 0.0156 | – | 0.0625 | 0.0625 | 33% | – | – | 0.0625 | 0.0625
Cc1nnc(SCC2=C(C(=O)O)N3C(=O)[C@@H](NC(=O)Cc4c(F)c(F)c(F)c(F)c4F)[C@H]3SC2)s1 [Compound 6] | – | 0.25 | – | – | – | 0.0625 | – | – | – | 0.0156 | – | 0.0625 | – | 0.125 | 0.125 | 60% | – | – | 0.0312 | 0.125
Cc1nnc(SCC2=C(C(=O)O)N3C(=O)[C@@H](NC(=O)COc4ccc(OC(F)(F)F)cc4)[C@H]3SC2)s1 [Compound 7] | – | 0.0625 | – | – | – | 0.0156 | – | – | – | 0.0078 | – | 0.0312 | – | 0.312 | 0.312 | 100% | – | – | ≤ 0.0078 | 0.312
Cc1nnc(SCC2=C(C(=O)O)N3C(=O)[C@@H](NC(=O)COc4ccc(F)cc4)[C@H]3SC2)s1 [Compound 8] | – | 0.0312 | – | – | – | 0.0312 | – | – | – | 0.0312 | – | 0.0312 | – | 0.0312 | 0.312 | 100% | – | – | 0.0312 | 0.0312
Cc1nnc(SCC2=C(C(=O)O)N3C(=O)[C@@H](NC(=O)COc4c(F)cc(F)cc4F)[C@H]3SC2)s1 [Compound 9] | – | 0.125 | – | – | – | 0.0625 | – | – | – | 0.0625 | – | 0.0312 | – | 0.0625 | 0.125 | 83% | – | – | 0.125 | 0.125
Cc1nnc(SCC2=C(C(=O)O)N3C(=O)[C@@H](NC(=O)COc4cc(F)cc(F)c4)[C@H]3SC2)s1 [Compound 10] | – | 0.0312 | – | – | – | 0.0312 | – | – | – | 0.0156 | – | 0.0156 | – | 0.0312 | 0.0312 | 33% | – | – | 0.0312 | 0.0312
CC(=O)OCC1=C(C(=O)O)N2C(=O)[C@@H](NC(=O)CSc3ccncc3)[C@H]2SC1 [cephapirin, reference compound] | – | – | – | – | – | – | – | – | – | – | – | – | – | – | – | – | 50% | 18 out of 36 | – | –
